Laboratory results as given in article PMC10778824, “New Chalcone Derivatives Containing 2,4-Dichlorobenzenesulfonamide Moiety with Anticancer and Antioxidant Properties” (International Journal of Molecular Sciences, 2023).
Values after ≈ are worked out from the molar mass of the structure shown. Values joined by “and” are separate entries in the source; they are usually repeats but may differ in a detail not shown here. Equal values may be shown once.

Legend:
[1] = tested on: acute promyelocytic leukemia HL-60; experiment: MTT assay, HL-60 cells; assay type: cell-based, human
Experimental: (§1) The human gastric adenocarcinoma AGS, cervical cancer HeLa, and acute promyelocytic leukemia HL-60 cells were obtained from the American Type Culture Collection (ATCC, Manassas, VA, USA). Human neonatal fibroblasts were obtained from LGC Standards (Luckenwalde, Germany). The HeLa and AGS lines were cultured in Dulbecco’s modified Eagle’s medium (DMEM) and DMEM/F12 medium, respectively. The HL-60 line was maintained in RPMI-1640 medium. Fibroblasts were cultured in Fibroblast Growth Medium with Supplement Mix. All the media were supplemented with 100 units/mL of penicillin, 100 µg/mL of streptomycin, and 10% (v/v) fetal bovine serum (FBS) (Merck Millipore, Burlington, MA, USA). The cells were incubated at 37 °C and 5% CO2.
(§2) To estimate the cytotoxic effect of the five compounds (4–8), MTT (3-(4,5-dimethylthiazol-2-yl)-2,5-diphenyltetrazolium bromide) assay was used. Oxaliplatin was used as a positive control in this test. All the cell lines were seeded in 96-well plates at a density of 5 × 10^3 cells/well and treated for 24 h with the compounds at concentrations of 0.5–40 µg/mL. Oxaliplatin was tested in the range of 20–400 µg/mL (50–1000 µM). After treatment, the cells were incubated with MTT (0.5 mg/mL; Merck Millipore, Burlington, MA, USA) for 3 h. Then, DMSO was used to dissolve formazan crystals, and the absorbance of the formazan solution was measured with a plate reader (Epoch, BioTek Instruments, Santa Clara, CA, USA). All the results (±standard deviation (SD)) were obtained from six repetitions in at least two independent experiments. The data are expressed as IC50 values (µg/mL).

AGS cells [2] = experiment: Cell cycle analysis (propidium iodide); assay type: cell-based, human; details: 48 h
Experimental: The AGS cells were seeded in a 6-well plate (5 × 10^5 cells/well) and incubated with compound 5 at concentrations of 1, 5, and 10 µg/mL for 48 h; oxaliplatin at the concentration of 40 µg/mL; and DMSO (0.2%, v/v). After treatment, the cells were stained with propidium iodide from the Muse Cell Cycle Assay Kit (Merck Millipore, Burlington, MA, USA), and the amount of cells in each phase of the cell cycle was determined using the Muse Cell Analyzer (Merck Millipore, Burlington, MA, USA). The experiment was independently repeated three times.

[3] = ABTS radical scavenging assay; details: concentration of 800 µg/mL
Experimental: The ABTS radical scavenging assay of chalcone derivatives was performed with ascorbic acid as a standard. Different concentrations of samples, dissolved in DMSO, were mixed with 170 μL of ABTS solution (2 mM ABTS diammonium salt and 3.5 mM potassium persulfate), and water was added to a final volume of 300 μL. ABTS solution with DMSO was used as a control. […] ABTS inhibition was calculated according to the following Formula (3):ABTS Inhibition (%) = [(Acontrol − Asample)/Acontrol] × 100%(3)

AGS cells [4] = experiment: Microscopic observation of AGS cells; assay type: cell-based, human; details: microscopy, 200×; compound 5 at 1, 5, 10 µg/mL; oxaliplatin 20 and 40 µg/mL
Experimental: These changes were clearly visible when higher concentrations of the compound were used in the study.
Figure 2 The effect of chalcone derivative 5 on AGS cells. The cells were treated with DMSO (0.2%, v/v) (A) and the compound at concentrations of 1 (B), 5 (C), and 10 (D) µg/mL and oxaliplatin at 20 (E) and 40 (F) µg/mL. The images were taken at 200× magnification.

[5] = tested on: human neonatal fibroblasts; experiment: MTT assay, noncancerous fibroblasts; assay type: cell-based; details: Homo sapiens, Fibroblast, 24 h treatment
Experimental: as §1, §2

neutrophil elastase = target: T1, neutrophil elastase (Sus scrofa, UniProt P00772); experiment: Elastase assay (SANA substrate); assay type: biochemical, porcine; details: Tris-HCl pH 8.0, SANA substrate; read-out: neutrophil elastase inhibition IC50 (converted)
T1 construct: purchased Sigma Chemical Co. (St. Louis, MO, USA)
Experimental: The elastase analysis was performed according to the spectrophotometric method with oleanolic acid as a reference. The reaction mixture (Tris-HCl buffer (pH 8.0), 1.0 μg/mL porcine pancreatic elastase, and different concentrations of chalcone derivatives was preincubated at room temperature for 15 min. Afterwards, the addition of the substrate—SANA—started the reaction. Product formation changes were analyzed at λ = 410 nm for 20 min every 20 s (Epoch, BioTek Instruments, Santa Clara, CA, USA). The control was composed of Tris-HCl buffer (pH 8.0), an appropriate concentration of the chalcone derivative, and SANA.

cervical cancer HeLa = experiment: MTT assay, HeLa cells; assay type: cell-based, human
Experimental: as §1, §2

AGS cells [6] = experiment: Annexin V and dead cell assay (flow cytometry); assay type: cell-based, human; details: 24 h
Experimental: (§3) To estimate the viability and induction of apoptosis/necrosis in the population of AGS cells treated with compound 5, the Muse Annexin V and a Dead Cell Assay Kit (Merck Millipore, Burlington, MA, USA) were used. The cells were seeded in 12-well plates (1 × 10^5 cells/well) and incubated with the compound at concentrations of 1, 5, and 10 µg/mL. […] After 24 h, the cells were stained with the kit reagents, namely, annexin V and 7-AAD (7-aminoactinomycin), and analyzed by flow cytometry (Muse Cell Analyzer, Merck Millipore, Burlington, MA, USA). The experiments were performed in three independent repeats.

[7] = Annexin V and dead cell assay (flow cytometry); assay type: cell-based, human; details: human, AGS cells, 10 µg/mL, read-out: live cells (viability)
Experimental: as §3

caspase-8 = experiment: Caspase-Glo 8 activity assay in AGS cells; assay type: cell-based, human; details: 24 h, relative to DMSO control
Experimental: The AGS cells were seeded in a 96-well plate (5 × 10^3 cells/well) and treated with compound 5 at concentrations of 1, 5, 7, and 10 µg/mL for 24 h; oxaliplatin at the concentration of 20 µg/mL; and DMSO (1%, v/v). The cells were then treated with reagents from Caspase-Glo 8 Assay or Caspase-Glo 9 Assay (Promega, Madison, WI, USA) and measured with the luminometer Glomax Multi + Detection System (Promega, Madison, WI, USA). The experiments were performed in two independent repeats in three repetitions.

[8] = SI = IC50 noncancer cells/IC50 cancer cells, in relation to human neonatal fibroblasts

T1 sequence (P00772 27-266): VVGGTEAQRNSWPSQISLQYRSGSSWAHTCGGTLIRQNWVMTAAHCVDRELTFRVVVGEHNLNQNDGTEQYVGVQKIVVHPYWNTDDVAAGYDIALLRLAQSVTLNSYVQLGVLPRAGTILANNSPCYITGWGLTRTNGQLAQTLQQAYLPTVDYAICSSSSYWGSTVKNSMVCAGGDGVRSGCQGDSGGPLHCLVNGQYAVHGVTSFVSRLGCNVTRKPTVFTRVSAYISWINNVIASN

With `Cc1cc(S(=O)(=O)Nc2ccc(C(=O)/C=C/c3ccc(Br)cc3)cc2)c(Cl)cc1Cl` [Compound 5, (E)-N-{4-[3-(4-Bromophenyl)acryloyl]phenyl}-2,4-Dichloro-5-Methylbenzenesulfonamide] the IC50 ([1]; Homo sapiens, HL-60, 24 h, MTT, 24 h treatment) was < 1.57 µg/mL, the “IC50 HL-60” value ([1]; MTT, 24 h treatment) was 0.93 ± 0.09 µg/mL (≈ 1.77 µM) and the “selectivity index HL-60” value [1, 8] was 27.52. For the same compound, the “cells in G0/G1 phase” value (AGS cells [2]; 1 µg/mL) was 41.4%, the “cells in G2/M phase” value (AGS cells [2]; 1 µg/mL) was 43.0% and the “cells in S phase” value (AGS cells [2]; 1 µg/mL) was 14.6%. For the same compound, the “cells in G1 (G0/G1) phase” value (AGS cells [2]; 10 µg/mL) was 34.9% and 34.47% ± 2.87%, the “cells in G2/M phase” value (AGS cells [2]; 10 µg/mL) was 23.1% and 21.50% ± 1.50% and the “cells in S phase” value (AGS cells [2]; 10 µg/mL) was 15.5% and 13.78% ± 1.70%. The “cells in subG0 phase” value (AGS cells [2]; 10 µg/mL) was 27.1% ± 0.87%, the “% of ABTS radical inhibition” value [3] was 16.01 ± 0.69% and the “morphological changes of AGS cells” value (AGS cells [4]) was “cell shrinkage, membrane blebbing, and cell detachment”. It also gave an IC50 [5] of 25.6 ± 1.04 µg/mL (≈ 48.7 µM), an IC50 (neutrophil elastase) of 121 µM and an IC50 (cervical cancer HeLa; Homo sapiens, HeLa, MTT, 24 h treatment) of 5.67 ± 0.35 µg/mL (≈ 10.8 µM). The “selectivity index HeLa” value (cervical cancer HeLa; [8]) was 4.51, the dead cells (AGS cells [6]; 5 µg/mL) was 18.28% ± 1.80% and the late apoptotic cells (AGS cells [6]; 5 µg/mL) was 33.92% ± 3.05%. The dead cells (AGS cells [6]; 10 µg/mL) was 22.16% ± 2.04%, the late apoptotic cells (AGS cells [6]; 10 µg/mL) was 49.90% ± 2.07% and the “live cells (viability)” value (AGS cells [6]; 10 µg/mL) was 26.26% ± 4.03%. It also gave a viability at 24 h, 10 µg/mL [7] of 29%, a caspase-8 relative activity (caspase-8; 1 µg/mL) of 1.16 ± 0.15 and a caspase-8 relative activity (caspase-8; 5 µg/mL) of 3.53 ± 0.33. It also gave a caspase-8 relative activity (caspase-8; 7 µg/mL) of 3.39 ± 0.28 and a caspase-8 relative activity (caspase-8; 10 µg/mL) of 2.99 ± 0.20.
